These results are taken from patent US20250090614A1, “COMPOSITIONS AND METHODS FOR IMPROVING LUNG FUNCTION” (priority 2023, published 2025).

Holding throughout (type): in vivo, mouse
For one test, the system named is old C57b1/6 mice. Description: Transdiaphragmatic pressure (Pdimax) in aged mice. The following applies: aged C57BL/6 mice, anesthetized, eupnoea, 25 mg/kg p.o. each substance, 90 days. How it is done:
The experiments were performed in old C57b1/6 mice (28-30 weeks). Table 1 discloses the groups of mice used for the experimentation. C57BL/6 mice were bred and naturally aged in a pathogen-free colony. Mice were group-housed six per cage for the treatment regimen and maintained on a 12-hr light-dark schedule with ad libitum access to food and water. All experiments were designed according to the principles of animal use for gerontological research (Miller, R. A., & Nadon, N. L. (2000). Principles of animal use for gerontological research. Journals of Gerontology. Series A, Biological Sciences and Medical Sciences, 55, B117-B123) [table] […] The respiratory muscle function in the study animals was assessed by estimating the Tidal Volume, Minute ventilation, Transdiaphragmatic pressure ([…]) and Respiratory rate. […] Anesthetized mice were monitored continually for temperature, oxygen saturation, and heart rate. Palpebral reflex and pain response were monitored to ensure depth of anaesthesia. […] Spontaneous ventilation was maintained, the abdomen was bound, and Pdi was recorded using solid-state pressure catheters. […] The pressure data were collected using a PowerLab 8/35 data-acquisition system and analyzed using LabChart ([…]., & Mantilla, C. B. (2013). Novel method for transdiaphragmatic pressure measurements in mice. Respiratory Physiology & Neurobiology, 188, 56-59)

For another test, the system named is SIRT1. The test can be described thus: SIRT1 ELISA in lung tissue homogenate of aged mice. The following applies: aged C57BL/6 mice, 25 mg/kg p.o. each substance, 90 days. How it is done: The experiments were performed in old C57b1/6 mice (28-30 weeks). Table 1 discloses the groups of mice used for the experimentation. C57BL/6 mice were bred and naturally aged in a pathogen-free colony. Mice were group-housed six per cage for the treatment regimen and maintained on a 12-hr light-dark schedule with ad libitum access to food and water. All experiments were designed according to the principles of animal use for gerontological research (Miller, R. A., & Nadon, N. L. (2000). Principles of animal use for gerontological research. Journals of Gerontology. Series A, Biological Sciences and Medical Sciences, 55, B117-B123) [table] The above test substances were administered to the mice for a period of 90 days. Rapamycin was used as a positive control. After 90 days of administration experiments were performed to assess the respiratory muscle function, anatomical changes, cellular senescence and immunological changes. A number of cellular mechanisms and alterations constitute the hallmarks of cellular senescence. These include a stable cell cycle arrest chromatin alteration & reorganization; Inhibition of Sirt-1. Inhibition of AMPK and Dysregulation of mTOR. Silencing information regulator 2 related enzyme 1 (sirtuin1, SIRT1) is an NAD+-dependent deacetylase, which is involved in the regulation of cellular senescence and aging. The expression of SIRT1 is diminished with aging in mice. […]
(In general: An ELISA detects its analyte on a solid surface through an enzyme-linked reagent.)

The next test deals with AMPK. Description: AMPK ELISA in lung tissue homogenate of aged mice. Particulars: aged C57BL/6 mice, 25 mg/kg p.o. each substance, 90 days. How it is done: The experiments were performed in old C57b1/6 mice (28-30 weeks). Table 1 discloses the groups of mice used for the experimentation. C57BL/6 mice were bred and naturally aged in a pathogen-free colony. Mice were group-housed six per cage for the treatment regimen and maintained on a 12-hr light-dark schedule with ad libitum access to food and water. All experiments were designed according to the principles of animal use for gerontological research (Miller, R. A., & Nadon, N. L. (2000). Principles of animal use for gerontological research. Journals of Gerontology. Series A, Biological Sciences and Medical Sciences, 55, B117-B123)
The above test substances were administered to the mice for a period of 90 days. Rapamycin was used as a positive control. After 90 days of administration experiments were performed to assess the respiratory muscle function, anatomical changes, cellular senescence and immunological changes.
Activation of AMPK delays senescence. Abnormal autophagy and aging promote each other, and AMPK is an important regulator of this process. AMPK is involved in the transduction of several aging-related signaling pathways. AMPK intervenes in the development of many age-related diseases.

In the case of `O=C(/C=C/c1ccc(O)c(O)c1)O[C@H](Cc1ccc(O)c(O)c1)C(=O)O` [Rosmarinic acid], the “Transdiaphragmatic pressure (Pdimax)” value in the test on old C57b1/6 mice is “increase”. For the same compound, the “expression of SIRT1” value in the test on SIRT1 is “increased”. For the same compound, the AMPK levels entry in the test with AMPK is “increased”.
